Test results published in ChEMBL document CHEMBL3430912, “GSK Tres Cantos Anti-Kinetoplastid Screening (TCAKS) Data”.

Legend:
Leishmania donovani [1] = test: GSK_TCAKS: pIC50 Leishmania donovani Imaging: Amastigotes/Macrophages. Assay plates (384-well) were prepared by adding 250nL of compound to each well. For single shot assay, the final compound concentration was 5 uM. […] Automated image analysis was performed with a script developed on Acapella High Content Imaging and Analysis Software (PerkinElmer). Output: Average number of amastigotes per macrophage cell were reported for each well.; type: functional, organism-based, Homo sapiens; conditions: THP-1
Trypanosoma cruzi [2] = test: GSK_TCAKS: pIC50 Trypanosoma cruzi viability assay using beta-GAL activity. This assay was run at single shot at 5uM compound concentration per well. The biological reagents consisted of NIH-3T3 host cells and trypomastigotes parasitic cells; both cell types were set to a 3.3 * 10^5 cells/mL dilution in assay DMEM by means of a CASY cell counter device using a 60um capillary. 6 uL of the mixture were dispensed per well (about 1 * 10^3 host-cells and 1 * 10^3 parasites) with a Multidrop Combi dispenser. […] In all wells, the percentage of DMSO never exceeded 0.5%. Plates incubated for four days at 37C, 5% CO2. The substrate used for the assay fluorescence intensity (FLINT) readout was resorufin-beta-D-galactopiranoside (Sigma-Aldrich) at 5uM per well. It was diluted in PBS supplemented with the soft detergent Igepal (Fluka).; type: functional, organism-based, Mus musculus; conditions: Tulahuen, NIH3T3
[3] = test system: Trypanosoma brucei brucei; test: GSK_TCAKS: pIC50 Trypanosoma brucei viability assay using luminiscence. Assay plates (1536-well) were prepared. T. brucei cultures were harvested and counted in a CASY cell counter. A parasite suspension was prepared at a final concentration of 5 * 10^4 cells/mL in complete HMI9 medium and 6uL was dispensed to all wells containing compounds using a Multidrop Combi dispenser. 6uL of HMI9 media with 0.4% DMSO were dispensed to control columns. Plates were incubated for 24 h at 37C, 5% CO2 then tempered for 10 min at room temperature. ATP content was quantified by adding 4 uL of CellTiter-Glo Reagent (Promega) according to the manufacturer's instructions. Luminescence was measured using a ViewLux.; type: functional, organism-based; conditions: Lister 427, CASY
Leishmania donovani [4] = test: GSK_TCAKS: pIC50 Leishmania donovani Imaging: Infected Macrophages. Assay plates (384-well) were prepared by adding 250nL of compound to each well. For single shot assay, the final compound concentration was 5 uM. […] Automated image analysis was performed with a script developed on Acapella High Content Imaging and Analysis Software (PerkinElmer). Output: Percent of infected macrophage cells were reported for each well.; type: functional, organism-based, Homo sapiens; conditions: THP-1
Trypanosoma cruzi [5] = test: (§1) GSK_TCAKS: pIC50 H2C9 Imaging: H9c2 Host Cardiomyocytes. […] Cells were then washed once with PBS before infection. T. cruzi trypomastigotes, collected at days 5 to 8 after infection from LLC-MK2 parasite infected cultures, were allowed to swim out for 4h at 37C from a centrifuged pellet (2,500 rpm/10 min/room temperature). Trypomastigotes were then collected and counted in a CASY Cell Counter. Trypomastigotes, in supplemented DMEM, were added to H9c2 cultures in a multiplicity of infection of 1 and incubated for 18 h. Cells were washed once with PBS before incubation of the infected H9c2 monolayer with trypsin (Life-Technologies) to detach cells from the flask. Cells were counted in a CASY Cell Counter using a 150 um capillary and their density set at 5 * 10^4 cells per mL in supplemented assay DMEM. Infected H9c2 were dispensed into 384-well poly-lysine coated assay plates at 50uL per well using a Multidrop Combi dispenser. After seeding them, the plates were incubated at 37C, 5% CO2 for 72h. Cultures were then fixed and stained by addition of 50 uL of a solution containing 8% formaldehyde and 4 uM DRAQ5 DNA dye (BioStatus, UK) per well. […] Five images were collected per well for reliable statistical analysis. Automated image analysis was performed with a script developed on Acapella High Content Imaging and Analysis Software (PerkinElmer). Output: Number of H9c2 Host Cardiomyocytes nuclei to determine drug-related cytotoxicity.; type: functional, organism-based, Rattus norvegicus; conditions: H9c2, 4 h
[6] = GSK_TCAKS: pIC50 HepG2 human cell line viability assay using luminiscence. […] Seeding density was checked to ensure that new mono-layers were not more than 50% confluent at the time of harvesting. Cell suspension was added to 500 mL of the same medium at a final density of 1.2 * 10^5 cells/mL. This cell suspension was dispensed (25 uL, 3000 cells per well) into 384-well clear-bottom plates using a Multidrop Combi dispenser. Prior to addition of the cell suspension, the screening compounds (250 nL) were pre-dispensed into the plates with an Echo liquid handler. Plates were incubated for 48 h at 37C, 5% CO2. After incubation, plates equilibrated at room temperature for 30 min before proceeding to develop the luminescent signal. The signal developer, CellTiter-Glo Reagent, was allowed to equilibrate at room temperature for 30 min and added to the plates (25uL per well) using a Multidrop Combi dispenser. Plates were left for 10 min at room temperature for stabilization and then read using a ViewLux.; type: toxicity, cell-based
[7] = biological target: Sterol 14-alpha demethylase (Trypanosoma cruzi (strain CL Brener), UniProt Q7Z1V1); test: GSK_TCAKS: pIC50 CYP51 from Trypanosoma cruzi.; type: functional
Sterol 14-alpha demethylase, sequence (Q7Z1V1 whole entry): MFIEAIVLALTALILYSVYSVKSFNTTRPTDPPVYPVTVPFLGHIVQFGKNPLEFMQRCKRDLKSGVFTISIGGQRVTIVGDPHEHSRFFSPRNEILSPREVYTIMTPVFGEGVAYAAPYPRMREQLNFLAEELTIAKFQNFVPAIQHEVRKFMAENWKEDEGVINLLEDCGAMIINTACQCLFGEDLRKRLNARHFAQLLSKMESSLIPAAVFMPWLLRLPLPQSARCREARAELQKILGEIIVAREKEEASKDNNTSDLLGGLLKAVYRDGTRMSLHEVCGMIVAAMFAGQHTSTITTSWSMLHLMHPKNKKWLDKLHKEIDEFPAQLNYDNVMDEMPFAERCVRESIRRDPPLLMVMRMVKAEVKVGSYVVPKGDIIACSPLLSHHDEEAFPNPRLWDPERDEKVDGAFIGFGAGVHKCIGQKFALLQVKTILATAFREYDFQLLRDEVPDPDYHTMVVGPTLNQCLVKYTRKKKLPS

Trypanosoma cruzi [8] = test: as §1, with “Trypanosoma cruzi” for “H2C9”, “Infected Cells.” for “H9c2 Host Cardiomyocytes.”, “percentage” for “Number”, “infected cells per well as a second infection marker.” for “H9c2 Host Cardiomyocytes nuclei to determine drug-related cytotoxicity.”; type: functional, organism-based, Rattus norvegicus; conditions: H9c2, 4 h
Leishmania donovani [9] = test: GSK_TCAKS: pIC50 Leishmania donovani Imaging: THP-1 Host Macrophages. Assay plates (384-well) were prepared by adding 250nL of compound to each well. For single shot assay, the final compound concentration was 5 uM. […] Automated image analysis was performed with a script developed on Acapella High Content Imaging and Analysis Software (PerkinElmer). Output: THP-1 cell count were reported for each well.; type: functional, organism-based, Homo sapiens
Trypanosoma cruzi [10] = test: as §1, with “Trypanosoma cruzi” for “H2C9”, “Amastigotes/Cell.” for “H9c2 Host Cardiomyocytes.”, “number” for “Number”, “amastigotes per cell as infection level measurement.” for “H9c2 Host Cardiomyocytes nuclei to determine drug-related cytotoxicity.”; type: functional, organism-based, Rattus norvegicus; conditions: H9c2, 4 h
Leishmania donovani [11] = test: GSK_TCAKS: pIC50 Leishmania donovani viability assay using fluorescence intensity. Assay plates (1536-well) were prepared by adding 30nL per well of compound. For single shot assay, the final compound concentration was 5uM. […] Briefly, eGFP LdBOB axenic amastigotes were harvested, fixed and counted in a CASY cell counter (Roche-Applied Science). A final concentration of 1.5 * 10^5 cells per well were prepared in amastigote media containing 500 U/mL penicillin/streptomycin (Invitrogen) and 6uL was dispensed to each experimental well using a Multidrop Combi dispenser (Thermo Scientific). 6uL of assay media was dispensed to control columns used as reference for 100% compound response. Following incubation for 72 h at 37C, 5% CO2, 2 uL of resazurin was added to each well at a final concentration of 0.5 mM in phosphate buffered saline (PBS) with IGEPAL (Sigma-Aldrich), 0.05% (v/v).; type: functional, organism-based
[12] = test system: Trypanosoma brucei brucei; test: GSK_TCAKS: pIC50 Trypanosoma brucei viability assay using fluorescence intensity. Assay plates (1536-well) were prepared by dispensing 25nL of compound solution per well using an Echo acoustic dispenser (Labcyte).; type: functional, organism-based; conditions: Lister 427, 2 h

SMILES | IC50 (Leishmania donovani [1]) | IC50 (Trypanosoma cruzi [2]) | IC50 [3] | IC50 (Leishmania donovani [4]) | IC50 (Trypanosoma cruzi [5]) | IC50 at 48 h [6] | IC50 [7] | IC50 (Trypanosoma cruzi [8]) | IC50 (Leishmania donovani [9]) | IC50 (Trypanosoma cruzi [10]) | IC50 (Leishmania donovani [11]) | IC50 [12]
O=C(c1ccccc1)N1CCC(C(=O)N2CCC(Oc3ccccc3Cl)CC2)CC1 | 31.6 µM | 2 µM | 1 µM | > 50.1 µM | > 50.1 µM | > 100 µM | 20 µM | 31.6 µM | > 50.1 µM | 25.1 µM | > 50.1 µM | 0.501 µM
CCCc1cc(N)nc(-c2cc(CCC)cc(N)n2)c1 | 1.58 µM | 2 µM | 7.94 µM | 2.51 µM | 0.2 µM | 31.6 µM | > 100 µM | 0.631 µM | 20 µM | 0.501 µM | 20 µM | 3.16 µM
CCOc1cc(NCCCN2CCN(C)CC2)c2ncccc2c1 | 0.794 µM | 1.78 µM | 20 µM | 1.26 µM | 31.6 µM | 31.6 µM | > 100 µM | 1.26 µM | 6.31 µM | 1 µM | 39.8 µM | 12.6 µM
Cc1cc(-c2cccc3ccccc23)nc2nc(N)nc(N)c12 | 1 µM | 39.8 µM | 20 µM | 5.01 µM | > 50.1 µM | 50.1 µM | > 100 µM | > 50.1 µM | 50.1 µM | 31.6 µM | 2 µM | 31.6 µM
N#Cc1ccc(Br)cc1[N+](=O)[O-] | 12.6 µM | 0.251 µM | 0.2 µM | 20 µM | 39.8 µM | 20 µM | 50.1 µM | 0.794 µM | 25.1 µM | 0.0631 µM | 7.94 µM | 0.158 µM
COc1ccc([N+](=O)[O-])cc1NC(=O)c1cc(Cl)ccc1O | 1.58 µM | 31.6 µM | 25.1 µM | 2 µM | > 50.1 µM | 10 µM | > 100 µM | 15.8 µM | 10 µM | 7.94 µM | 7.94 µM | 25.1 µM
O=C(Nc1ccccc1C(=O)Nc1ccccn1)c1ccco1 | > 50.1 µM | > 50.1 µM | 0.501 µM | > 50.1 µM | > 50.1 µM | > 100 µM | > 100 µM | > 50.1 µM | > 50.1 µM | > 50.1 µM | > 50.1 µM | 0.251 µM
COc1cccc(Nc2cc(C)nc(-c3ccccn3)n2)c1 | 1.26 µM | 3.16 µM | > 39.8 µM | 2 µM | 5.01 µM | 50.1 µM | > 100 µM | 12.6 µM | > 50.1 µM | 7.94 µM | 3.98 µM | > 39.8 µM
CCCCn1c(=O)c2c(N)onc2n(CCCC)c1=O | 31.6 µM | 25.1 µM | 0.501 µM | > 50.1 µM | 25.1 µM | 50.1 µM | 79.4 µM | 31.6 µM | > 50.1 µM | 25.1 µM | > 50.1 µM | 0.631 µM
Nc1nccc(-c2csc(Nc3ccc(Cl)cc3)n2)n1 | 1 µM | 1.26 µM | > 39.8 µM | 1 µM | 2 µM | > 100 µM | 1.26 µM | > 50.1 µM | > 50.1 µM | > 50.1 µM | 3.98 µM | > 39.8 µM
NS(=O)(=O)c1ccc(Nc2nccc(-c3cnn4ncccc34)n2)cc1 | 1 µM | 2.51 µM | 0.158 µM | 2 µM | 0.316 µM | > 100 µM | > 100 µM | 15.8 µM | 0.251 µM | 0.794 µM | 0.794 µM | 0.0794 µM
Oc1c(-c2nnc(CCc3ccccc3)[nH]2)ncc2cccnc12 | 3.16 µM | 0.2 µM | 1.58 µM | 3.98 µM | 15.8 µM | 39.8 µM | > 100 µM | 0.2 µM | 20 µM | 0.2 µM | 0.316 µM | 0.794 µM
